Experimental findings from ChEMBL document CHEMBL5380844, “Discovery of a Novel, Potent, Orally Active, and Safe Inhibitor Targeting Human Mitochondrial RNA Polymerase” (J Med Chem, 2023) are described below.

The term inhibition denotes the percentage by which the read-out fell short of the control. The pIC50 is the negative decadic logarithm of the IC50, by convention in mol/L. Broadly, the Cmax is the maximum level reached in the sampled fluid or tissue. In general, AUC(0-t) refers to exposure summed from dosing to a finite time, without extrapolation to infinity. Broadly, the AUC(0-inf) is the area under the concentration-time curve extrapolated to infinity. The clearance is the volume of plasma or blood freed of the substance per unit of time. What is called MRT is the average time that molecules of a dose stay in the body. Broadly, the half-life is the time needed for the level to fall by half in the phase considered. In general, bioavailability refers to the share of a dose that reaches the circulation, judged against a reference dose that is usually intravenous. One may read the solubility as the concentration that dissolves in the medium under given conditions. Broadly, the Papp A→B is how fast a substance crosses the layer from the apical side.

pIC50: −log10 of the molar value. In brackets after ≈: the same amount, converted by molar mass. Activity calls are given as the source filed them.

Series [1] in a line: Inhibition of ND1 transcript level in human A2780 cells at 500 nM measured after 12 hrs by RT-qPCR analysis relative to control. It counts as functional. (Quantitative PCR measures a nucleic acid by following its amplification.)
Series [2] concerns A2780. Nature of the series: Antiproliferative activity against human A2780 cells incubated for 168 hrs by SRB method. The format is functional, cell-based. Conditions: A2780, 168 h. (In general: In SRB staining, fixed cells bind dye roughly in proportion to their protein.)
Series [3] is described as follows: Cmax in ICR mouse at 1 mg/kg, iv measured upto 24 hrs by LC-MS/MS analysis. It counts as ADME, organism-based. Also on record: time < 24 hrs, dose 1 mg/kg, route iv. Conditions: in vivo.
Series [4] in a line: Cmax in ICR mouse at 10 mg/kg, po measured upto 24 hrs by LC-MS/MS analysis. It counts as ADME, organism-based. Set-up: time < 24 hrs, dose 10 mg/kg, route po. The note with it: in vivo.
Series [5] is described as follows: AUC (0 to t) in ICR mouse at 10 mg/kg, po measured upto 24 hrs by LC-MS/MS analysis. The format is ADME, organism-based. The note with it: in vivo. Also on record: dose 10 mg/kg, time < 24 hrs, route po.
The nature of series [6]: AUC (0 to t) in ICR mouse at 1 mg/kg, iv measured upto 24 hrs by LC-MS/MS analysis. It counts as ADME, organism-based. Also on record: time < 24 hrs, dose 1 mg/kg, route iv. Conditions: in vivo.
Series [7] is described as follows: AUC (0 to infinity) in ICR mouse at 1 mg/kg, iv measured upto 24 hrs by LC-MS/MS analysis. The format is ADME, organism-based. Also on record: time < 24 hrs, dose 1 mg/kg, route iv. Conditions: in vivo.
Series [8] can be described thus: Volume of distribution at steady state in ICR mouse at 1 mg/kg, iv measured upto 24 hrs by LC-MS/MS analysis. It counts as ADME, organism-based. The note with it: in vivo, read-out: Vdss.
The nature of series [9]: Clearance in ICR mouse at 1 mg/kg, iv measured upto 24 hrs by LC-MS/MS analysis. It counts as ADME, organism-based. The note with it: in vivo.
Series [10] is described as follows: MRT in ICR mouse at 1 mg/kg, iv measured upto 24 hrs by LC-MS/MS analysis. It counts as ADME, organism-based. The note with it: in vivo.
A short description of series [11]: Half life in ICR mouse at 1 mg/kg, iv measured upto 24 hrs by LC-MS/MS analysis. It counts as ADME, organism-based. The note with it: in vivo.
The nature of series [12]: Half life in ICR mouse at 10 mg/kg, po measured upto 24 hrs by LC-MS/MS analysis. Conditions: in vivo. It counts as ADME, organism-based.
The nature of series [13]: Oral bioavailability in ICR mouse at 10 mg/kg measured upto 24 hrs by LC-MS/MS analysis. Conditions: in vivo. It counts as ADME, organism-based.
The test system of a further series is MDA-MB-468. In words: Antiproliferative activity against human MDA-MB-468 cells incubated for 168 hrs by SRB method. The format is functional, cell-based. The note with it: MDA-MB-468, 168 h.
A further series has as its system HeLa. In words: Antiproliferative activity against human HeLa cells incubated for 168 hrs by SRB method. It counts as functional, cell-based.
The next series deals with HepG2. In words: Antiproliferative activity against human HepG2 cells incubated for 168 hrs by SRB method. The format is functional, cell-based. Conditions: HepG2, 168 h.
Another series has as its system NCI-H3122. In words: Antiproliferative activity against human NCI-H3122 cells incubated for 168 hrs by SRB method. It counts as functional, cell-based. The note with it: NCI-H3122, 168 h.
In the next series the test system is A549. Nature of the series: Antiproliferative activity against human A549 cells incubated for 168 hrs by SRB method. It counts as functional, cell-based. The note with it: A549, 168 h.
Another series has as its system NCI-H1975. Nature of the series: Antiproliferative activity against human NCI-H1975 cells incubated for 168 hrs by SRB method. The format is functional, cell-based. Conditions: NCI-H1975, 168 h.
A further series has as its system MDA-MB-231. Nature of the series: Antiproliferative activity against human MDA-MB-231 cells incubated for 168 hrs by SRB method. Conditions: MDA-MB-231, 168 h. It counts as functional, cell-based.
In a further series the test system is DLD-1. In words: Antiproliferative activity against human DLD-1 cells incubated for 168 hrs by SRB method. The note with it: DLD-1, 168 h. The format is functional, cell-based.
The next series relates to MIA PaCa-2. Nature of the series: Antiproliferative activity against human MIA PaCa-2 cells incubated for 168 hrs by SRB method. It counts as functional, cell-based. Conditions: MIA PaCa-2, 168 h.
The nature of series [14]: Antiproliferative activity against human PBMC cells incubated for 168 hrs by SRB method. It counts as functional, cell-based.
For the next series, the system named is IMR-90. In words: Antiproliferative activity against human IMR-90 cells incubated for 168 hrs by SRB method. The format is functional, cell-based. The note with it: IMR-90, 168 h.
Series [15] can be described thus: Solubility in PBS at pH 7.4. It counts as physicochemical.
The test system of series [16] is A2780. Nature of the series: Antitumor activity against human A2780 cells xenografted in BALB/c nude mouse model assessed as reduction in tumor weight at 100 mg/kg, po administered daily and measured after 27 days relative to control. Also on record: scale not given: the % may be the effect or the level left. It counts as functional. The note with it: time 27 day. For orientation: In xenograft studies the graft and the host belong to different species.

Series [17] has as its system A2780. Nature of the series: Antitumor activity against human A2780 cells xenografted in BALB/c nude mouse model assessed as reduction in mitochondrial DNA transcript level at 100 mg/kg, po administered daily. The format is functional, organism-based.
The subject of series [18] is A2780. In words: Antitumor activity against human A2780 cells xenografted in BALB/c nude mouse model assessed as reduction in ND1 expression in liver at 100 mg/kg, po administered daily. It counts as functional, organism-based.
The subject of series [19] is A2780. Nature of the series: Antitumor activity against human A2780 cells xenografted in BALB/c nude mouse model assessed as induction of tumor shrinkage 100 mg/kg by H and E staining based immunohistochemical analysis. The format is functional, organism-based.
Series [20] is described as follows: Toxicity in Balb/c mouse assessed as effect on liver at 100 mg/kg by H and E staining based analysis. It counts as organism-based. Conditions: in vivo.
Series [21] can be described thus: Toxicity in Balb/c mouse assessed as effect on heart at 100 mg/kg by H and E staining based analysis. Conditions: in vivo. The format is organism-based.
Series [22] is described as follows: Toxicity in Balb/c mouse assessed as effect on spleen at 100 mg/kg by H and E staining based analysis. The note with it: in vivo. The format is organism-based.
Series [23] is described as follows: Toxicity in Balb/c mouse assessed as effect on lung at 100 mg/kg by H and E staining based analysis. It counts as organism-based. Conditions: in vivo.
Series [24] can be described thus: Toxicity in Balb/c mouse assessed as effect on kidney at 100 mg/kg by H and E staining based analysis. The format is organism-based. Conditions: in vivo.
The nature of series [25]: Acute toxicity in Balb/c mouse assessed as effect on liver 100 mg/kg measured after 27 days by H and E staining based analysis. It counts as organism-based. Conditions: in vivo, 648 h, time 27 day.
Series [26] in a line: Acute toxicity in Balb/c mouse assessed as effect on kidney 100 mg/kg measured after 27 days by H and E staining based analysis. The format is organism-based. The note with it: in vivo, 648 h, time 27 day.
Series [27] in a line: Apparent permeability across apical to basolateral side in human Caco-2 cells at 3 uM incubated for 2 hrs by LC-MS/MS analysis. It counts as ADME, cell-based.

In series [1], `Cc1ccc(-c2cc(=O)oc3cc(O[C@H](C)C(=O)N4CC5CCC(C4)N5)ccc23)c(C)c1` showed an inhibition at 0.5 µM of 7%. The same compound gave a pIC50 in the series on A2780 [2] of 7.57. The Cmax in [3] was 234 ng/mL; in [4] it was 66.6 ng/mL. Moreover, the AUC(0-t) at 24 h in [5] amounted to 403 ng·h/mL; in series [6], 294 ng·h/mL. Moreover, the AUC(0-inf) in series [7] is 351 ng·h/mL. Besides, the Vd in [8] turned out to be 5.84 L/kg. In [9], this compound yielded a clearance of 47.6 mL/min/kg. In series [10], this compound registered an MRT of 2.05 h. Further, the half-life in series [11] was 1.61 h; in series [12], 2.67 h. The bioavailability in [13] is 13.7%.
In the case of `C[C@@H](Oc1ccc2c(-c3ccc(F)cc3Cl)cc(=O)oc2c1)C(=O)N1CCC[C@H](C(=O)O)C1`, in [1], at 0.5 µM the inhibition was 25%. Moreover, the pIC50 with A2780 [2] is 6.86; with MDA-MB-468, 6.72; in the series on HeLa, 5.98; with HepG2 it was 6.77; with NCI-H3122 it was less than 5.00; in the series on A549 it was 6.06. In addition, the pIC50 with NCI-H1975 is 6.66; in the series on MDA-MB-231, less than 5.00; with DLD-1 it was 6.85; in the series on MIA PaCa-2, 6.82; in series [14] it was less than 4.30; in the series on IMR-90, less than 4.30. Also, the solubility in series [15] amounted to 6.49 µg/mL (≈ 13.7 µM). Moreover, the Activity is 56.75% in the series on A2780 [16]; “Non-Toxic” in series [20]; “Non-Toxic” in series [21]; “Non-Toxic” in series [22]; “Non-Toxic” in series [23]; “Non-Toxic” in series [24]. Also, the Activity result in [25] and in series [26] was “Non-Toxic” in each case. In addition, the result with A2780 [17], in the series with A2780 [18] and in the series with A2780 [19] was Active.
In turn, `C[C@@H](Oc1ccc2c(-c3ccc(F)cc3Cl)cc(=O)oc2c1)C(=O)N1CCS(=O)(=O)CC1` displayed an inhibition at 0.5 µM in series [1] of 35%. Moreover, in the series on A2780 [2], the negative logarithm of the IC50 (pIC50) was 6.54.
For the compound `Nc1cc(N2CCCCC2)nc(N)[n+]1[O-]` [MINOXIDIL], the Papp A→B at 2 h, 3 µM in series [27] worked out at 6.79 ×10⁻⁶ cm/s.
Turning to `C[C@@H](Oc1ccc2c(-c3ccc(F)cc3Cl)cc(=O)oc2c1)C(=O)NCCCO`, in series [1], the inhibition at 0.5 µM was 22%. For the same compound, the pIC50 with A2780 [2] is 6.75.
